Measured values from US12606528B2, “Methods and materials for inhibiting NF-kB activity” (University of Pittsburgh - Of the Commonwealth System of …, priority 2019, dated 2026).
Where two headings read alike, the source gives them in different places.

Key:
[1] = tested on: NF-κB; test: NF-κB assay: THP1-NF-κB-LUC cells, LPS-stimulated secreted luciferase; format: cell-based; settings: THP1-NF-κB-LUC cells, read-out: IC50 (NF-κB assay)
Outline: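 THP1-NF-κB-LUC cells (25k/well) were pretreated with compounds for 2 h, then stimulated with LPS (10 ng/mL) for 18 h. Secreted luciferase was measured and normalized to vehicle, and IC50 was fitted from the concentration series.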

[2] = tested on: TNF release; test: TNF assay: TNF release from LPS-stimulated human PBMCs (TNF ELISA); format: cell-based; settings: PBMC, read-out: IC50 (TNF assay)
Description: 25k THP1-NF-κB-LUC cells were dispensed into 384 well plate (per well). Cells were treated with compounds with various concentrations for 2 hours before addition of LPS (10 ng/mL) for 18 hours. Secreted luciferase activity were measured using quant-luc reagents (1 bag of luc reagent dilute to 40 mL, use 10 μL per well). Data were normalized to vehicle control and graphed. Compound IC50 towards inhibiting NF-κB were determined through Prism. Similarly, 10k human PBMCs cells were cultured in 384 well plate (per well). Cells were treated with compounds with various concentrations for 2 hours before addition of LPS (10 ng/ml) for 18 hours, and supernatants were collected and assayed for TNF ELISA. Compound IC50 towards inhibiting TNF release were determined through Prism. • Activity: “+”>10 μM, “++”>1 μM and <10 μM, “+++”>0.1 μM and <1 μM, “++++”<0.1 μM.

[3] = LPS-stimulated human PBMCs, TNF ELISA
[4] = compounds 2 hours before LPS (10 ng/mL) for 18 hours, secreted luciferase
[5] = human PBMCs, compounds 2 hours before LPS (10 ng/ml) for 18 hours, supernatant TNF ELISA

SMILES	IC50 ([1]; LPS-stimulated)	IC50 [2, 3]	IC50 [1, 4]	IC50 [2, 5]
Cc1ccc(NS(=O)(=O)c2cc(Br)cc3c2OCCNC3=O)cc1 [BC19612]	1 to 10 µM	> 10 µM	–	–
Fc1ccc(-c2nc3cc(-c4nnn[nH]4)ccc3nc2-c2cccs2)cc1 [BC19186]	1 to 10 µM	> 10 µM	–	–
CN(C)CC[S+]([O-])c1sc(-c2ccccc2)nc1S(=O)(=O)c1ccc(Cl)cc1 (stereo not drawn) [BC19474]	1 to 10 µM	> 10 µM	–	–
CS(=O)(=O)c1cc2c(c(S(=O)(=O)Nc3ccc(OC(F)(F)F)cc3)c1)OCC(=O)N2 [BC19422]	–	–	< 0.1 µM	> 10 µM
CN1CCN(C(=O)c2cc3nc(-c4ccc(F)cc4)c(-c4ccc(F)cc4)nc3cn2)CC1 [BC19666]	0.1 to 1 µM	> 10 µM	–	–
Cc1ccc(S(=O)(=O)c2nc(-c3ccccc3)oc2S(=O)(=O)C2CCCCC2)cc1 [BC19267]	< 0.1 µM	0.1 to 1 µM	–	–
CN(C)c1cccc2cc(S(=O)(=O)c3ccccc3)cnc12 [BC19326]	–	–	> 10 µM	1 to 10 µM
CN1CCN(C(=O)c2ccc3nc(C(F)(F)F)c(-c4ccc(F)cc4)nc3c2)CC1 [BC19103]	> 10 µM	> 10 µM	–	–
CCC1Oc2cc(S(=O)(=O)Nc3ccc(C(C)C)cc3)c(Br)cc2N(C)C1=O (stereo not drawn) [BC19934]	–	–	0.1 to 1 µM	1 to 10 µM
CN1CCN(C(=O)c2ccc3nc(C(F)(F)F)c(-c4cccnc4)nc3c2)CC1 [BC19105]	> 10 µM	> 10 µM	–	–
C#CCNC(=O)c1ccc2nc(-c3ccc(F)cc3)c(-c3cccs3)nc2c1 [BC19189]	0.1 to 1 µM	> 10 µM	–	–
Cc1ccc(NS(=O)(=O)c2cc(S(C)(=O)=O)cc3c2OCC(=O)N3)cc1F [BC19423]	–	–	< 0.1 µM	> 10 µM
COc1ccc(NS(=O)(=O)c2cc3c(cc2Br)NC(=O)C(CC(C)C)O3)cc1Cl (stereo not drawn) [BC19780]	–	–	1 to 10 µM	> 10 µM
N#Cc1ccc2nc(-c3ccc(F)cc3)c(-c3ccc(F)cc3)nc2c1 [BC19192]	0.1 to 1 µM	> 10 µM	–	–
CN(C)c1cccc(-c2nc3ccc(C(=O)NCCO)cc3nc2-c2cccc(N(C)C)c2)c1 [BC19502]	> 10 µM	> 10 µM	–	–
CC(C)[S+]([O-])c1sc(-c2cccc(F)c2)nc1S(=O)(=O)c1ccc(F)cc1 (stereo not drawn) [BC19591]	1 to 10 µM	1 to 10 µM	–	–
O=C(NCCCN1CCOCC1)Nc1ccc2nc(-c3ccc(F)cc3)c(-c3ccc(F)cc3)nc2c1 [BC19576]	0.1 to 1 µM	> 10 µM	–	–
CC1Oc2cc(S(=O)(=O)Nc3cccc(Cl)c3)c(Cl)cc2NC1=O (stereo not drawn) [BC19715]	–	–	< 0.1 µM	1 to 10 µM
O=S(=O)(CC1CC1)c1sc(C2CCCCC2)nc1S(=O)(=O)c1ccc(Cl)cc1 [BC19639]	> 10 µM	> 10 µM	–	–
CCC[S+]([O-])c1sc(C2CCCCC2)nc1S(=O)(=O)c1ccc(Cl)cc1 (stereo not drawn) [BC19645]	> 10 µM	> 10 µM	–	–
CC(C)CS(=O)(=O)c1oc(-c2cccc(F)c2)nc1S(=O)(=O)c1ccc(Cl)cc1 [BC19348]	< 0.1 µM	0.1 to 1 µM	–	–
CCC1Oc2cc(S(=O)(=O)Nc3ccc(F)c(F)c3)c(Br)cc2N(C)C1=O (stereo not drawn) [BC19926]	–	–	< 0.1 µM	> 10 µM
O=S(=O)(CC1CC1)c1sc(-c2ccccc2)nc1S(=O)(=O)c1ccc(Cl)cc1 [BC19525]	1 to 10 µM	1 to 10 µM	–	–
CCc1cccc(NS(=O)(=O)c2cc(Cl)cc3c2OC(C)C(=O)N3)c1 (stereo not drawn) [BC19712]	–	–	< 0.1 µM	> 10 µM
O=C1COc2c(cc(Br)cc2S(=O)(=O)Nc2ccc(F)c(F)c2)N1 [BC19177]	–	–	< 0.1 µM	> 10 µM
CCC1Oc2c(cc(Cl)cc2S(=O)(=O)Nc2ccc(C)c(Cl)c2)NC1=O (stereo not drawn) [BC19746]	–	–	< 0.1 µM	> 10 µM
CN1CCN(C(=O)c2ccc3nc(-c4ccc(F)cc4)c(-c4ccc(F)cc4F)nc3c2)CC1 [BC19318]	< 0.1 µM	> 10 µM	–	–

SMILES	IC50 ([1]; LPS-stimulated)	IC50 [2, 3]	IC50 [1, 4]	IC50 [2, 5]
COCC[S+]([O-])c1sc(-c2cccnc2)nc1S(=O)(=O)c1ccc(Cl)cc1 (stereo not drawn) [BC19679]	1 to 10 µM	0.1 to 1 µM	–	–
COc1ccc2[nH]cc(S(=O)(=O)c3ccc(F)c(F)c3)c(=O)c2n1 [BC 19203]	–	–	1 to 10 µM	> 10 µM
COCCS(=O)(=O)c1sc(-c2ccc3ccccc3c2)nc1S(=O)(=O)c1ccc(Cl)cc1 [BC19678]	1 to 10 µM	1 to 10 µM	–	–
Cc1c(Cl)cc2c(c1S(=O)(=O)Nc1ccc(F)c(F)c1)OCC(=O)N2 [BC19489]	–	–	< 0.1 µM	> 10 µM
CC(C)NS(=O)(=O)c1cc2c(cc1Cl)NC(=O)C(C)O2 (stereo not drawn) [BC19207]	–	–	> 10 µM	> 10 µM
CN(C)c1cccc(-c2nc3ccc(C(=O)O)cc3nc2-c2cccc(N(C)C)c2)c1 [BC19500]	> 10 µM	> 10 µM	–	–
Cc1ccc(S(=O)(=O)c2nc(-c3ccccc3)oc2S(C)(=O)=O)cc1 [BC19260]	< 0.1 µM	< 0.1 µM	–	–
O=c1c(S(=O)(=O)c2cccc(F)c2)c(O)[nH]c2ncccc12 [BC19409]	–	–	> 10 µM	> 10 µM
Fc1ccc(-c2nc3ccc(-c4ncco4)cc3nc2-c2ccc(F)cc2)cc1 [BC19145]	1 to 10 µM	> 10 µM	–	–
O=C(NCCN1CCOCC1)c1ccc2nc(-c3ccc(OC(F)(F)F)cc3)c(-c3ccc(OC(F)(F)F)cc3)nc2c1 [BC19503]	1 to 10 µM	1 to 10 µM	–	–
CC(C)CS(=O)(=O)c1sc(-c2cccc(F)c2)nc1S(=O)(=O)c1ccc(Cl)cc1 [BC19477]	> 10 µM	> 10 µM	–	–
Cc1ccc(Cl)cc1NS(=O)(=O)c1cc(Cl)cc2c1OCC(=O)N2 [BC19170]	–	–	1 to 10 µM	> 10 µM
CC1Oc2cc(S(=O)(=O)Nc3ccc(C#N)cc3)c(Br)cc2N(C)C1=O (stereo not drawn) [BC19920]	–	–	0.1 to 1 µM	> 10 µM
CCS(=O)(=O)c1cc2c(c(S(=O)(=O)Nc3ccc(C(C)C)cc3)c1)OCC(=O)N2 [BC19493]	–	–	< 0.1 µM	> 10 µM
CC(C)[S+]([O-])c1[nH]c(-c2ccccc2)nc1S(=O)(=O)c1ccc(F)cc1 (stereo not drawn) [BC19523]	1 to 10 µM	> 10 µM	–	–
CCC1Oc2c(cc(Br)cc2S(=O)(=O)Nc2cccc(Cl)c2)NC1=O (stereo not drawn) [BC19232]	–	–	< 0.1 µM	> 10 µM
CCC1Oc2cc(S(=O)(=O)Nc3ccc(OC(F)(F)F)cc3)c(Cl)cc2NC1=O (stereo not drawn) [BC19733]	–	–	< 0.1 µM	> 10 µM
Cn1oc(-c2ccc3nc(-c4ccc(F)cc4)c(-c4ccc(F)cc4)nc3c2)cc1=O [BC19667]	> 10 µM	> 10 µM	–	–
CS(=O)(=O)c1cc2c(c(S(=O)(=O)Nc3cccc(F)c3)c1)OCC(=O)N2 [BC19426]	–	–	< 0.1 µM	> 10 µM
CCc1ccc(NS(=O)(=O)c2cc(S(C)(=O)=O)cc3c2OCC(=O)N3)cc1 [BC19484]	–	–	< 0.1 µM	> 10 µM
O=C1COc2cc(S(=O)(=O)Nc3ccc(OC(F)(F)F)cc3)c(Cl)cc2N1 [BC19164]	–	–	< 0.1 µM	> 10 µM
CC1Oc2cc(S(=O)(=O)NC3CCC(C(C)(C)C)CC3)c(Br)cc2NC1=O (stereo not drawn) [BC19361]	–	–	> 10 µM	> 10 µM
CCS(=O)(=O)c1cc2c(c(S(=O)(=O)Nc3ccc(OC)cc3)c1)OCC(=O)N2 [BC19438]	–	–	< 0.1 µM	> 10 µM
Fc1ccc(-c2nc3cc(-c4nnn[nH]4)ccc3nc2C(F)(F)F)cc1 [BC19113]	> 10 µM	> 10 µM	–	–
O=S(=O)(c1ccc(Cl)cc1)c1nc(-c2ccccc2)[nH]c1[S+]([O-])CC1CC1 (stereo not drawn) [BC19466]	1 to 10 µM	> 10 µM	–	–
CC1Oc2c(cc(Br)cc2S(=O)(=O)Nc2ccc(F)c(F)c2)N(C)C1=O (stereo not drawn) [BC19787]	–	–	< 0.1 µM	> 10 µM
CC(C)S(=O)(=O)[C@@H]1CN(Cc2ccccc2)C[C@H]1S(=O)(=O)c1ccc(F)cc1 (racemic) [BC19643]	> 10 µM	> 10 µM	–	–
